Measurements: PubChem BioAssay (NCI)
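Dose response: 5 concentrations. Exposure: 48 h. Format: 96-well plates. Endpoint: linear interpolation; highest concentration if not reached. GI50 marks 50% less growth. TGI is the concentration that stops growth completely.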

Legend:
Experiment in all cases: inhibition of tumour cell growth, NCI panel, 48 h
T-47D breast = system: T-47D breast
U251 CNS = system: U251 CNS
OVCAR-5 ovarian = system: OVCAR-5 ovarian
NCI-H522 lung = system: NCI-H522 lung
TK-10 renal = system: TK-10 renal
A498 renal = system: A498 renal
NCI-H226 lung = system: NCI-H226 lung
NCI-H460 lung = system: NCI-H460 lung
SF-295 CNS = system: SF-295 CNS
HT29 colon = system: HT29 colon
HCC-2998 colon = system: HCC-2998 colon
MOLT-4 leukemia = system: MOLT-4 leukemia
HS 578T breast = system: HS 578T breast
MALME-3M melanoma = system: MALME-3M melanoma
SR leukemia = system: SR leukemia
SF-539 CNS = system: SF-539 CNS
SN12C renal = system: SN12C renal
A549 NSCLC = system: A549 NSCLC
786-0 renal = system: 786-0 renal
KM12 colon = system: KM12 colon
M14 melanoma = system: M14 melanoma
UACC-62 melanoma = system: UACC-62 melanoma
K-562 leukemia = system: K-562 leukemia
OVCAR-8 ovarian = system: OVCAR-8 ovarian
HL-60(TB) leukemia = system: HL-60(TB) leukemia
MCF7 breast = system: MCF7 breast
SK-MEL-5 melanoma = system: SK-MEL-5 melanoma
IGROV1 ovarian = system: IGROV1 ovarian
EKVX NSCLC = system: EKVX NSCLC
CCRF-CEM leukemia = system: CCRF-CEM leukemia

Q: Which TGI (T-47D breast) does the source give for `CC[C@@]12CC(C(=O)OC)=C3Nc4cc5c(cc4[C@@]34CCN(C[C@H]3O[C@H]31)[C@@H]24)[C@@H]1[C@H](O5)[C@@H](O)[C@@]2(CC)CC(C(=O)OC)=C3Nc4cc(O)ccc4[C@@]34CCN1[C@@H]24` here?
A: 10400 nM

Q: What about the GI50 (U251 CNS) of the same compound?
A: 317 nM

Q: And the TGI (U251 CNS)?
A: 4770 nM

Q: What about the GI50 (OVCAR-5 ovarian) of the same compound?
A: 1330 nM

Q: What about the TGI (OVCAR-5 ovarian) of the same compound?
A: 15000 nM

Q: What about the GI50 (NCI-H522 lung) of the same compound?
A: 51.5 nM

Q: What about the TGI (NCI-H522 lung) of the same compound?
A: 752 nM

Q: What about the GI50 (TK-10 renal) of the same compound?
A: 128 nM

Q: What about the TGI (TK-10 renal) of the same compound?
A: 3310 nM

Q: What about the GI50 (A498 renal) of the same compound?
A: 269 nM

Q: What about the TGI (A498 renal) of the same compound?
A: 2560 nM

Q: What about the GI50 (NCI-H226 lung) of the same compound?
A: 157 nM

Q: What about the TGI (NCI-H226 lung) of the same compound?
A: 7000 nM

Q: And the GI50 (NCI-H460 lung)?
A: 441 nM

Q: What about the TGI (NCI-H460 lung) of the same compound?
A: 7570 nM

Q: And the GI50 (SF-295 CNS)?
A: 330 nM

Q: And the TGI (SF-295 CNS)?
A: 12700 nM

Q: What about the GI50 (HT29 colon) of the same compound?
A: 142 nM

Q: What about the TGI (HT29 colon) of the same compound?
A: 7450 nM

Q: What about the GI50 (HCC-2998 colon) of the same compound?
A: 145 nM

Q: And the TGI (HCC-2998 colon)?
A: 735 nM

Q: And the GI50 (MOLT-4 leukemia)?
A: 768 nM

Q: And the TGI (MOLT-4 leukemia)?
A: 5320 nM

Q: What about the GI50 (HS 578T breast) of the same compound?
A: 105 nM

Q: And the TGI (HS 578T breast)?
A: 2860 nM

Q: What about the GI50 (MALME-3M melanoma) of the same compound?
A: 201 nM

Q: What about the TGI (MALME-3M melanoma) of the same compound?
A: 2640 nM

Q: What about the GI50 (SR leukemia) of the same compound?
A: 79.3 nM

Q: And the TGI (SR leukemia)?
A: 7690 nM

Q: What about the GI50 (SF-539 CNS) of the same compound?
A: 322 nM

Q: And the TGI (SF-539 CNS)?
A: 11600 nM

Q: What about the GI50 (SN12C renal) of the same compound?
A: 439 nM

Q: What about the TGI (SN12C renal) of the same compound?
A: 10900 nM

Q: And the GI50 (A549 NSCLC)?
A: 381 nM

Q: What about the TGI (A549 NSCLC) of the same compound?
A: 11100 nM

Q: And the GI50 (786-0 renal)?
A: 188 nM

Q: And the TGI (786-0 renal)?
A: 10000 nM

Q: And the GI50 (KM12 colon)?
A: 273 nM

Q: What about the TGI (KM12 colon) of the same compound?
A: 4520 nM

Q: And the GI50 (M14 melanoma)?
A: 239 nM

Q: What about the TGI (M14 melanoma) of the same compound?
A: 19200 nM

Q: And the GI50 (UACC-62 melanoma)?
A: 49.1 nM

Q: And the TGI (UACC-62 melanoma)?
A: 1170 nM

Q: And the GI50 (K-562 leukemia)?
A: 134 nM

Q: And the TGI (K-562 leukemia)?
A: 7900 nM

Q: What about the GI50 (OVCAR-8 ovarian) of the same compound?
A: 424 nM

Q: And the TGI (OVCAR-8 ovarian)?
A: 15700 nM

Q: What about the GI50 (HL-60(TB) leukemia) of the same compound?
A: 35.1 nM

Q: And the TGI (HL-60(TB) leukemia)?
A: 295 nM

Q: And the GI50 (MCF7 breast)?
A: 45.2 nM

Q: What about the TGI (MCF7 breast) of the same compound?
A: 6010 nM

Q: And the GI50 (SK-MEL-5 melanoma)?
A: 154 nM

Q: What about the TGI (SK-MEL-5 melanoma) of the same compound?
A: 958 nM

Q: What about the GI50 (IGROV1 ovarian) of the same compound?
A: 254 nM

Q: And the TGI (IGROV1 ovarian)?
A: 2930 nM

Q: What about the GI50 (EKVX NSCLC) of the same compound?
A: 439 nM

Q: What about the TGI (EKVX NSCLC) of the same compound?
A: 16700 nM

Q: And the GI50 (CCRF-CEM leukemia)?
A: 4380 nM

Q: What about the TGI (CCRF-CEM leukemia) of the same compound?
A: 56000 nM
